Type in all cases: functional, cell-based
The test system of one experiment is A549. Description: Antiproliferative activity against human A549 cells after 48 hrs by MTT assay. The conditions noted are these: A549, 48 h.
For a further experiment, the system named is MCF7. Put plainly: Antiproliferative activity against human MCF7 cells after 48 hrs by MTT assay. The conditions noted are these: MCF7, 48 h. A general note: Formazan colour is commonly taken as a measure of viable cells.
In another experiment the test system is HepG2. Description: Antiproliferative activity against human HepG2 cells after 48 hrs by MTT assay. As to conditions: HepG2, 48 h.
The next experiment deals with HCT-116. Description: Antiproliferative activity against human HCT116 cells after 48 hrs by MTT assay. As to conditions: HCT-116, 48 h.

The structures appear in SMILES notation.

As a reminder, the IC50 is the midpoint of a concentration-inhibition curve. A higher IC50 goes with weaker potency. In the case of `COc1ccc(C2C(C#N)=C(N)Oc3c(N)cc4nc5ccccc5nc4c32)cc1F` (centres undefined), the IC50 is 11.3 µM in the experiment on A549, above 50 µM with MCF7, 7.8 µM with HepG2 and 20.4 µM with HCT-116.

Take `COc1ccc(C2C(C#N)=C(N)Oc3c(N)cc4nc5ccccc5nc4c32)cc1OC` (centres undefined): the IC50 in the experiment with A549, in the experiment on MCF7, with HepG2 and in the experiment with HCT-116 was above 50 µM each time.

For the compound `CCOC(=O)C1=C(N)Oc2c(N)cc3nc4ccccc4nc3c2C1c1cc(Br)ccc1OC` (centres undefined), the IC50 in the experiment on A549 was above 50 µM; with MCF7, above 50 µM; in the experiment on HepG2, 13.9 µM; in the experiment with HCT-116 it was above 50 µM.

Take `COc1cc(OC)c(C2C(C#N)=C(N)Oc3c(N)cc4nc5ccccc5nc4c32)cc1OC` (centres undefined): the IC50 was 44.6 µM with A549, above 50 µM with MCF7, 23.1 µM in the experiment on HepG2 and 30.6 µM with HCT-116.

`N#CC1=C(N)Oc2c(N)cc3nc4ccccc4nc3c2C1c1ccc([N+](=O)[O-])cc1` (centres undefined): the IC50 is 15.9 µM in the experiment with A549, above 50 µM in the experiment with MCF7, 18.1 µM in the experiment with HepG2 and 14.5 µM with HCT-116.

For the compound `CCOC(=O)C1=C(N)Oc2c(N)cc3nc4ccccc4nc3c2C1c1ccccc1F` (centres undefined), the IC50 in the experiment with A549 is 24.5 µM; in the experiment with MCF7 it was 18.7 µM; with HepG2, 6.3 µM; with HCT-116 it was 35.6 µM.

Take `COc1cc(C2C(C#N)=C(N)Oc3c(N)cc4nc5ccccc5nc4c32)cc(Br)c1OC` (centres undefined): the IC50 with A549 came out at 5.3 µM; in the experiment on MCF7, 25.6 µM; in the experiment with HepG2 it was 6.2 µM; in the experiment on HCT-116 it was 12.1 µM.

For the compound `CCOC(=O)C1=C(N)Oc2c(N)cc3nc4ccccc4nc3c2C1c1ccc(Cl)c(Cl)c1` (centres undefined), the IC50 in the experiment on A549 is 17.1 µM; with MCF7, 8.4 µM; in the experiment with HepG2 it was 24.2 µM; in the experiment on HCT-116, above 50 µM.

Consider `COc1cc(C2C(C#N)=C(N)Oc3c(N)cc4nc5ccccc5nc4c32)cc(OC)c1Br` (centres undefined), for which the IC50 in the experiment on A549 is 24.2 µM; in the experiment with MCF7, above 50 µM; in the experiment with HepG2 it was 12.4 µM; with HCT-116 it was 18.2 µM.

For the compound `COc1ccc(C2C(C#N)=C(N)Oc3c(N)cc4nc5ccccc5nc4c32)c(OC)c1OC` (centres undefined), the IC50 in the experiment with A549 stood at 20.3 µM; in the experiment on MCF7 it was 28.1 µM; in the experiment on HepG2 it was 15.3 µM; with HCT-116 it was 47.1 µM.

As to `COc1cc(C2C(C#N)=C(N)Oc3c(N)cc4nc5ccccc5nc4c32)cc(OC)c1O` (centres undefined), the IC50 was above 50 µM in the experiment on A549, 28.8 µM with MCF7, above 50 µM in the experiment with HepG2 and 7.6 µM with HCT-116.

For the compound `CC(C)c1ccc(C2C(C#N)=C(N)Oc3c(N)cc4nc5ccccc5nc4c32)cc1` (centres undefined), the IC50 in the experiment on A549 was 14.5 µM; in the experiment with MCF7 it was above 50 µM; in the experiment with HepG2, 16.2 µM; in the experiment on HCT-116, 20.6 µM.

For `CCOC(=O)C1=C(N)Oc2c(N)cc3nc4ccccc4nc3c2C1c1ccc(OC)c(F)c1` (centres undefined), the IC50 was 24.8 µM in the experiment on A549, above 50 µM in the experiment on MCF7, 8.5 µM in the experiment on HepG2 and 20.5 µM with HCT-116.

Turning to `N#CC1=C(N)Oc2c(N)cc3nc4ccccc4nc3c2C1c1c(Cl)cccc1Cl` (centres undefined), the IC50 in the experiment on A549 was 12 µM; in the experiment on MCF7 it was 40.2 µM; in the experiment with HepG2, above 50 µM; with HCT-116, 10.2 µM.

`COc1ccc(Br)cc1C1C(C#N)=C(N)Oc2c(N)cc3nc4ccccc4nc3c21` (centres undefined): the IC50 in the experiment with A549 was 14.1 µM; with MCF7, above 50 µM; in the experiment on HepG2 it was 11.7 µM; with HCT-116, 30.1 µM.

In the case of `CCOC(=O)C1=C(N)Oc2c(N)cc3nc4ccccc4nc3c2C1c1cccc(Br)c1` (centres undefined), the IC50 in the experiment with A549 was 13.4 µM; in the experiment with MCF7, above 50 µM; in the experiment on HepG2 it was above 50 µM; in the experiment with HCT-116, 10.8 µM.

`CCOC(=O)C1=C(N)Oc2c(N)cc3nc4ccccc4nc3c2C1c1ccc(CC)cc1` (centres undefined): the IC50 in the experiment with A549 was 39.1 µM; in the experiment on MCF7, above 50 µM; in the experiment with HepG2, 30.4 µM; in the experiment with HCT-116, 15.1 µM.

As for `N#CC1=C(N)Oc2c(N)cc3nc4ccccc4nc3c2C1c1cccc(Cl)c1` (centres undefined), the IC50 in the experiment with A549 was determined as 21.4 µM; with MCF7, 39.1 µM; in the experiment with HepG2 it was 9.4 µM; in the experiment with HCT-116, 15.1 µM.

On to `CCOC(=O)C1=C(N)Oc2c(N)cc3nc4ccccc4nc3c2C1c1cc(Br)c(OC)c(OC)c1` (centres undefined), for which the IC50 with A549 is 10.3 µM; with MCF7, above 50 µM; in the experiment on HepG2, 10.3 µM; in the experiment on HCT-116, 9.7 µM.

For the compound `CCOC(=O)C1=C(N)Oc2c(N)cc3nc4ccccc4nc3c2C1c1ccc([N+](=O)[O-])cc1` (centres undefined), the IC50 amounted to 18.8 µM in the experiment with A549, 13.2 µM with MCF7, 6.7 µM in the experiment with HepG2 and 16.4 µM in the experiment on HCT-116.

Regarding `N#CC1=C(N)Oc2c(N)cc3nc4ccccc4nc3c2C1c1ccccc1Cl` (centres undefined), the IC50 in the experiment on A549 is 6.3 µM; in the experiment with MCF7 it was 25.1 µM; in the experiment on HepG2, 8.4 µM; in the experiment with HCT-116, 7.4 µM.

Consider `CCOC(=O)C1=C(N)Oc2c(N)cc3nc4ccccc4nc3c2C1c1cccc([N+](=O)[O-])c1` (centres undefined), for which the IC50 in the experiment with A549 was above 50 µM; with MCF7 it was 20.2 µM; in the experiment on HepG2 it was 7.3 µM; with HCT-116 it was above 50 µM.

For the compound `CCOC(=O)C1=C(N)Oc2c(N)cc3nc4ccccc4nc3c2C1c1cc(OC)c(Br)c(OC)c1` (centres undefined), the IC50 is 13.5 µM in the experiment with A549, above 50 µM in the experiment with MCF7, 10.1 µM in the experiment on HepG2 and 20.1 µM in the experiment on HCT-116.

As to `CCOC(=O)C1=C(N)Oc2c(N)cc3nc4ccccc4nc3c2C1c1ccc(Cl)cc1Cl` (centres undefined), the IC50 in the experiment with A549 was 19.1 µM; with MCF7 it was above 50 µM; in the experiment on HepG2, 11.5 µM; in the experiment with HCT-116, 12.1 µM.

In the case of `CCOC(=O)C1=C(N)Oc2c(N)cc3nc4ccccc4nc3c2C1c1ccc(Cl)cc1` (centres undefined), the IC50 was determined as 5.5 µM in the experiment on A549, 10 µM with MCF7, 7.2 µM in the experiment with HepG2 and 8.2 µM in the experiment with HCT-116.

On to `N#CC1=C(N)Oc2c(N)cc3nc4ccccc4nc3c2C1c1ccc(Br)cc1` (centres undefined), for which the IC50 in the experiment on A549 is 11.2 µM; with MCF7, above 50 µM; in the experiment on HepG2, 10.3 µM; with HCT-116, 6.3 µM.

Consider `CCOC(=O)C1=C(N)Oc2c(N)cc3nc4ccccc4nc3c2C1c1ccc(Br)cc1` (centres undefined), for which the IC50 is 17.3 µM with A549, above 50 µM in the experiment on MCF7, 10.6 µM in the experiment with HepG2 and 20.2 µM with HCT-116.

In the case of `N#CC1=C(N)Oc2c(N)cc3nc4ccccc4nc3c2C1c1cccc([N+](=O)[O-])c1` (centres undefined), the IC50 in the experiment on A549 is 26.6 µM; in the experiment on MCF7, 20.3 µM; in the experiment with HepG2, above 50 µM; with HCT-116, above 50 µM.

As for `CCOC(=O)C1=C(N)Oc2c(N)cc3nc4ccccc4nc3c2C1c1c(Cl)cccc1Cl` (centres undefined), the IC50 in the experiment on A549 is above 50 µM; in the experiment on MCF7 it was above 50 µM; in the experiment on HepG2, 40.1 µM; with HCT-116 it was 12.4 µM.

With `CCOC(=O)C1=C(N)Oc2c(N)cc3nc4ccccc4nc3c2C1c1ccccc1[N+](=O)[O-]` (centres undefined), the IC50 in the experiment with A549 was 14.5 µM; in the experiment on MCF7, 18.6 µM; with HepG2, 7.4 µM; in the experiment with HCT-116, 18.2 µM.

Regarding `CCc1ccc(C2C(C#N)=C(N)Oc3c(N)cc4nc5ccccc5nc4c32)cc1` (centres undefined), the IC50 in the experiment with A549 came to 23.4 µM; in the experiment with MCF7, 19.1 µM; with HepG2, 15.5 µM; in the experiment on HCT-116 it was 5.5 µM.
